Test results reported in patent US5430027A, “2-chloro-N^6 -substituted adenosines, their pharmaceutical compositions, and activity in treating ischemias” (Novo Nordisk A/S, priority 1992, dated 1995).

Key:
A2 receptor = target: T1, A2 receptor (Rattus norvegicus, UniProt P30543); test: In vitro binding to adenosine A2 receptor, [3H]-CGS 21680 radioligand; details: radioligand [3H]-CGS 21680; read-out: A2 receptor binding (Ki50)
T1 construct: from tissue
Experimental: (§1) Evaluation of in vitro binding to adenosine A1 and A2 receptors
(§2) The affinity of the novel compounds described in this invention for the adenosine A1 receptor was determined essentially as described in the literature using [^3 H]-R-PIA as a radioligand (Naunyn-Schmiedeberg's Archives of Pharmacology, 1980, 313, 179-187). Affinity for the A2 receptor was measured using the radioligand [^3 H]-CGS 21680 (European Journal of Pharmacology, 1989, 168, 243-246), and the values for representative compounds is given in the table below.

adenosine A1 receptor = target: T2, adenosine A1 receptor (Rattus norvegicus, UniProt P25099); test: In vitro binding to adenosine A1 receptor, [3H]-R-PIA radioligand; details: for Ratio A2/A1: A2 binding Ki50 divided by A1 binding Ki50 (selectivity); for Ki: radioligand [3H]-R-PIA, read-out: A1 receptor binding (Ki50)
T2 construct: from tissue
T2 sequence (P25099 1-326): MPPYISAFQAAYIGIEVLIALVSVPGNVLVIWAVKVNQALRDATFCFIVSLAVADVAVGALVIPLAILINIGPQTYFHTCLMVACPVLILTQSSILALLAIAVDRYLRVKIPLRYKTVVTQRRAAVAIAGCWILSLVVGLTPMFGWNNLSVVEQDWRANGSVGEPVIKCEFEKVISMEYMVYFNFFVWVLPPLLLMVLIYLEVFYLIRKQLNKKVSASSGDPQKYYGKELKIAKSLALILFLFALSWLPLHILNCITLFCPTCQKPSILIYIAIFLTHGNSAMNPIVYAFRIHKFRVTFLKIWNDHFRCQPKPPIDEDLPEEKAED
Experimental: as §1, §2

T1 sequence (P30543 whole entry): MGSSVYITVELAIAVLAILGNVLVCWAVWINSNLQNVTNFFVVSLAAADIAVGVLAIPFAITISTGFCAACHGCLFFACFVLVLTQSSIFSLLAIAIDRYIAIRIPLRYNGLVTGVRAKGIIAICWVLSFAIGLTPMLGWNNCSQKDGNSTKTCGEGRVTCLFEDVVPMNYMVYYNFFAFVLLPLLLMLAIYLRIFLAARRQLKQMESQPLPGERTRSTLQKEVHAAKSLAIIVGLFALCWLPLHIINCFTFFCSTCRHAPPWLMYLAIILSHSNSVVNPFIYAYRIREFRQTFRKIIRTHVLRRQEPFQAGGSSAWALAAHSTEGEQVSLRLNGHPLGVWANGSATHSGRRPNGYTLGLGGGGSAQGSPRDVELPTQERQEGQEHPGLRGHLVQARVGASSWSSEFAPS

With `CN(C)Nc1nc(Cl)nc2c1ncn2[C@@H]1O[C@H](CO)[C@@H](O)[C@H]1O` [Example 3, 2-Chloro-N-(N,N-dimethylamino)adenosine] the Ki (A2 receptor) was 1660 nM, the “Ratio A2/A1” value (adenosine A1 receptor) was 92 and the Ki (adenosine A1 receptor) was 18 nM.

In the case of `OC[C@H]1O[C@@H](n2cnc3c(NOC4CCCC4)nc(Cl)nc32)[C@H](O)[C@@H]1O` [Example 7, 2-Chloro-N-cyclopentyloxyadenosine], the Ki (A2 receptor) is reported as 2880 nM, the “Ratio A2/A1” value (adenosine A1 receptor) is reported as 429 and the Ki (adenosine A1 receptor) is reported as 6.7 nM.

For `CONc1nc(Cl)nc2c1ncn2[C@@H]1O[C@H](CO)[C@@H](O)[C@H]1O` [Example 8, 2-Chloro-N-methoxyadenosine], the Ki (A2 receptor) was 1150 nM, the “Ratio A2/A1” value (adenosine A1 receptor) was 55 and the Ki (adenosine A1 receptor) was 21 nM.
